Results taken from patent US20120095055A1, “HEXAHYDROCYCLOPENTYL[f]INDAZOLE 5-HYDROXYMETHYL ETHANOLS AND DERIVATIVES THEREOF AS SELECTIVE GLUCOCORTICOID RECEPTOR MODULATORS” (Merck Sharp & Dohme, Corp., priority 2009, published 2012).

Biological target: T1, human GR (Homo sapiens, UniProt P04150)
T1 construct: naturally expresses the human GR; endogenous in cells
T1 sequence (P04150 1-777): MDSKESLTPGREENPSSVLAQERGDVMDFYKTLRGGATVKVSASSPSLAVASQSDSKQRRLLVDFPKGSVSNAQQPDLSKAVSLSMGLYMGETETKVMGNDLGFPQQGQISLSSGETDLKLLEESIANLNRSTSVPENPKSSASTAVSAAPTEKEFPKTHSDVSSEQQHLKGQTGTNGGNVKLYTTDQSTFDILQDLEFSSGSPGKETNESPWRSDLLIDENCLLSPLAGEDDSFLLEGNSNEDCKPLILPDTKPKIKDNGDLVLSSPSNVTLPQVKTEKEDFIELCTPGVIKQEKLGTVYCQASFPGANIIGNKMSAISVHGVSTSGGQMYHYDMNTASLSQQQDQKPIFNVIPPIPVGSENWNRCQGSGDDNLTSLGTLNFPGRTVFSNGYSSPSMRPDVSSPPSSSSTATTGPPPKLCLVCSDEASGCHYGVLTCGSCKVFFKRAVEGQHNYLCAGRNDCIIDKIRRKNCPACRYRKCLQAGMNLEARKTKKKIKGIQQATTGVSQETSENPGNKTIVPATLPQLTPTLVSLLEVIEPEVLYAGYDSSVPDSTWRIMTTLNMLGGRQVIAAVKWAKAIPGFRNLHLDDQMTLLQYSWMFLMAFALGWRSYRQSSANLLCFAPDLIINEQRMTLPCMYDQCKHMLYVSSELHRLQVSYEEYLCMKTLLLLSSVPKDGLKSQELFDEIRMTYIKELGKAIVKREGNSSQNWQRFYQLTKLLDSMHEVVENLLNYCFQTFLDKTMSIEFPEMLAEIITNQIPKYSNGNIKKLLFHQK
Experiment: Trans-Activation Modulation of Glucocorticoid Receptor Assay (GRAMMER), MMTV-LUC reporter in A549 cells
Format: cell-based
Conditions: for Transactivation A549 Cells GRAMMER Emax (%): Emax relative to the activity obtained with 300 nM dexamethasone; for EC50: inflection point (IP), MMTV-LUC reporter, read-out: Transactivation A549 Cells GRAMMER IP; for Emax: A549, Emax relative to the activity obtained with 300 nM dexamethasone, read-out: Transactivation A549 Cells GRAMMER Emax (%)
Description: This assay assesses the ability of test compounds to control transcription from the MMTV-LUC reporter gene in lung adenocarcinoma A549 cells or HeLa cells, a human […] cell line that naturally expresses the human GR. The assay measures induction of a modified MMTV LTR/promoter linked to the LUC reporter gene.
The routine transient assay consists of plating 7,000-25,000 cells/well of a white, clear-bottom 96-well plate. Alternatively, 384-well plates can be used at a cell concentration of 10,000/well. The media that the cells are plated in is “exponential growth medium” which consists of phenol red-free RPMI1640 containing 10% FBS, 4 mM L-glutamine, 20 mM HEPES, 10 ug/mL human insulin, and 20 ug/mL gentamicin. Incubator conditions are 37° C. and 5% CO2. The transfection is done in batch mode. The cells are trypsinized and counted to the right cell number in the proper amount of fresh media. It is then gently mixed with the FuGene6/DNA mix and plated onto the 96 or 384-well plate, all the wells receive 100 uL or 40 uL, respectively, of medium+lipid/DNA complex then incubated 37° C. overnight. The transfection cocktail consists of serum-free OptiMEM, FuGene6 reagent and DNA. The manufacturer's (Roche Biochemical) protocol for cocktail setup is as follows: The lipid to DNA ratio is approximately 2.5:1 and the incubation time is 20 min at room temperature. Sixteen to 24 hours after transfection, the cells are treated with dexamethasone to a final concentration of 10 nM as well as the compound of interest, such that final DMSO (vehicle) concentration is equal to or less than 1%. Each plate also contains samples that are treated with 10 nM dexamethasone alone, which is used as the 100% activity control. The cells are exposed to the compounds for 24 hours. After 24 hours, the cells are lysed by a Promega cell culture lysis buffer for approximately 30 min and then the luciferase activity in the extracts is assayed in the 96-well format luminometer. In 384-well format, Steady-Glo (Promega) or Steady-Lite (PerkinElmer) can be used by adding an equal volume of reagent to the media present in each well. Activity induced by 10 nM dexamethasone alone is set at 100% activity. Antagonist activity is calculated by determining the decrease in dexamethasone-induced activity in response to compound treatment relative to samples that were treated with dexamethasone alone. Results are expressed as % inhibition of 10 nM dexamethasone activity or as fold of 10 nM dexamethasone activity. This transactivation assay can be performed in an agonist and antagonist mode to identify these different activities.
Activity of test compounds is calculated as the Emax relative to the activity obtained with 300 nM dexamethasone. Activity of test compounds is calculated as the Emax relative to the activity obtained with 300 nM DEX. The exemplified tissue selective glucocorticoid receptor modulators of the present invention display agonist activity in this assay of greater than 5% and less than 100%, and maximal transactivation activity less then maximal transrepression activity. […]

SMILES | Transactivation A549 Cells GRAMMER Emax (%) | EC50 | Emax
C[C@]12Cc3cnn(-c4ccc(F)cc4)c3C=C1CC[C@@]2(CO)CC(O)c1ccccn1 (single isomer, unassigned) [Example 1a] | 83.9% | 5.6 nM | 
C[C@]12Cc3cnn(-c4ccc(F)cc4)c3C=C1CC[C@@]2(CO)CC(O)c1ccccn1 (single isomer, unassigned) [Example 1b] | 56.0% | 26.4 nM | 
Cc1ccc(C(O)C[C@]2(CO)CCC3=Cc4c(cnn4-c4ccc(F)cc4)C[C@@]32C)cc1 (single isomer, unassigned) [Example 2a] | 46.6% | 485 nM | 
Cc1ccc(C(O)C[C@]2(CO)CCC3=Cc4c(cnn4-c4ccc(F)cc4)C[C@@]32C)cc1 (single isomer, unassigned) [Example 2b] |  | 316 nM | 45.5%
C[C@]12Cc3cnn(-c4ccc(F)cc4)c3C=C1CC[C@@]2(CO)CC(O)c1ccccc1Cl (single isomer, unassigned) [Example 3a] |  | 38.8 nM | 127%
C[C@]12Cc3cnn(-c4ccc(F)cc4)c3C=C1CC[C@@]2(CO)CC(O)c1ccccc1Cl (single isomer, unassigned) [Example 3b] | 130.3% | 16.7 nM | 
Cc1cccc(C(O)C[C@]2(CO)CCC3=Cc4c(cnn4-c4ccc(F)cc4)C[C@@]32C)c1 (single isomer, unassigned) [Example 5a] |  | 78.8 nM | 65.5%
Cc1cccc(C(O)C[C@]2(CO)CCC3=Cc4c(cnn4-c4ccc(F)cc4)C[C@@]32C)c1 (single isomer, unassigned) [Example 5b] | 58.4% | 23.6 nM | 
C[C@]12Cc3cnn(-c4ccc(F)cc4)c3C=C1CC[C@@]2(CO)CC(O)c1cc(F)cc(Cl)c1 (single isomer, unassigned) [Example 6a] | 62.4% | 30.5 nM | 
C[C@]12Cc3cnn(-c4ccc(F)cc4)c3C=C1CC[C@@]2(CO)CC(O)c1cc(F)cc(Cl)c1 (single isomer, unassigned) [Example 6b] | 84.7% | 124 nM | 
C[C@]12Cc3cnn(-c4ccc(F)cc4)c3C=C1CC[C@@]2(CO)CC(O)c1cccc(C(F)(F)F)c1 (single isomer, unassigned) [Example 7a] |  | 58.8 nM | 60.2%
C[C@]12Cc3cnn(-c4ccc(F)cc4)c3C=C1CC[C@@]2(CO)CC(O)c1cccc(C(F)(F)F)c1 (single isomer, unassigned) [Example 7b] | 55.8% | 39.3 nM | 
C[C@]12Cc3cnn(-c4ccc(F)cc4)c3C=C1CC[C@@]2(CO)CC(O)c1ncccc1F (single isomer, unassigned) [Example 10a] |  | 23.7 nM | 56.6%
C[C@]12Cc3cnn(-c4ccc(F)cc4)c3C=C1CC[C@@]2(CO)CC(O)c1ncccc1F (single isomer, unassigned) [Example 10b] | 67.0% | 12.4 nM | 
C[C@]12Cc3cnn(-c4ccc(F)cc4)c3C=C1CC[C@@]2(CO)CC1OC(=O)c2ccccc21 (single isomer, unassigned) [Example 12a] |  | 127 nM | 47.4%
C[C@]12Cc3cnn(-c4ccc(F)cc4)c3C=C1CC[C@@]2(CO)CC1OC(=O)c2ccccc21 (single isomer, unassigned) [Example 12b] | 54.2% | 33.3 nM | 
C[C@]12Cc3cnn(-c4ccc(F)cc4)c3C=C1CC[C@@]2(CO)CC(O)c1ccccc1 (single isomer, unassigned) [Example 13a] |  | 8.8 nM | 73.1%
C[C@]12Cc3cnn(-c4ccc(F)cc4)c3C=C1CC[C@@]2(CO)CC(O)c1ccccc1 (single isomer, unassigned) [Example 13b] | 57.5% | 7.2 nM | 
CC(C)C(O)C[C@]1(CO)CCC2=Cc3c(cnn3-c3ccc(F)cc3)C[C@@]21C (single isomer, unassigned) [Example 14a] |  | 479 nM | 25%
CC(C)C(O)C[C@]1(CO)CCC2=Cc3c(cnn3-c3ccc(F)cc3)C[C@@]21C (single isomer, unassigned) [Example 14b] | 32.6% | 206 nM | 
C[C@]12Cc3cnn(-c4ccc(F)cc4)c3C=C1CC[C@@]2(CO)CC(O)c1cccnc1 (single isomer, unassigned) [Example 15a] |  | 68.1 nM | 52.7%
C[C@]12Cc3cnn(-c4ccc(F)cc4)c3C=C1CC[C@@]2(CO)CC(O)c1cccnc1 (single isomer, unassigned) [Example 15b] | 39.3% | 149 nM | 
C[C@]12Cc3cnn(-c4ccc(F)cc4)c3C=C1CC[C@@]2(CO)CC(O)c1ccncc1 (single isomer, unassigned) [Example 17a] |  | 101 nM | 26.4%
C[C@]12Cc3cnn(-c4ccc(F)cc4)c3C=C1CC[C@@]2(CO)CC(O)c1ccncc1 (single isomer, unassigned) [Example 17b] | 35.6% | 77.5 nM | 
C[C@]12Cc3cnn(-c4ccc(F)cc4)c3C=C1CC[C@@]2(CO)CC(O)C1CCCCC1 (single isomer, unassigned) [Example 18a, 1-cyclohexyl-2-[(4αS)-1-(4-fluorophenyl)-5-(hydroxymethyl)-4α-methyl-1,4,4α,5,6,7-hexahydrocyclopenta[f]indazol-5-yl]ethanol] |  | 22.3 nM | 55.3%
C[C@]12Cc3cnn(-c4ccc(F)cc4)c3C=C1CC[C@@]2(CO)CC(O)C1CCCCC1 (single isomer, unassigned) [Example 18b, 1-cyclohexyl-2-[(4αS)-1-(4-fluorophenyl)-5-(hydroxymethyl)-4α-methyl-1,4,4α,5,6,7-hexahydrocyclopenta[f]indazol-5-yl]ethanol] | 56.2% | 59.6 nM | 
C[C@]12Cc3cnn(-c4cccc(F)c4)c3C=C1CC[C@@]2(CO)CC(O)c1ccccn1 (single isomer, unassigned) [Example 19a] |  | 41.9 nM | 43.7%
C[C@]12Cc3cnn(-c4cccc(F)c4)c3C=C1CC[C@@]2(CO)CC(O)c1ccccn1 (single isomer, unassigned) [Example 19b] | 24.2% | 94.8 nM | 
C[C@]12Cc3cnn(-c4ccc(F)cc4)c3C=C1CC[C@@]2(CO)CC(O)C1CC1 (single isomer, unassigned) [Example 20a, 1-cyclopropyl-2-[(4αS)-1-(4-fluorophenyl)-5-(hydroxymethyl)-4α-methyl-1,4,4α,5,6,7-hexahydrocyclopenta[f]indazol-5-yl]ethanol] | 23.1% | 187 nM | 
